In one assay the target is T1, HER3 TKD (Homo sapiens, UniProt P21860).
T1 construct: made in house
T1 sequence (P21860 709-966 limits assumed): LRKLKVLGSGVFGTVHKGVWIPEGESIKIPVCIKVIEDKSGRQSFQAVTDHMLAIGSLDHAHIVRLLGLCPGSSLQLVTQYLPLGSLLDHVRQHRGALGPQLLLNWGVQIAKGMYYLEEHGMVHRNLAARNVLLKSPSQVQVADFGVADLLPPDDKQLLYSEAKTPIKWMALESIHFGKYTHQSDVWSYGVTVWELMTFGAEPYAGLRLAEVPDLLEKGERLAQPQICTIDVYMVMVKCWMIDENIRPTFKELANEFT
The experiment in a line: HER3 TKD Thermofluor assay. The settings on record: 20 μM inhibitor, 2 μM kinase, vs DMSO. The assay is classed as binding. The method, then:
HER3 Thermofluor Assay. Wt HER3 TKD was purified according to the previously published protocol^1. Thermofluor reactions were performed in duplicate and set up as follows. 1 μL of an inhibitor or DMSO dilution in 40% DMSO:water was added to 19 μL of the HER3 kinase domain in reaction buffer. The final reaction solution contained 100 mM MOPS, 200 mM NaCl, 5% glycerol, 5 mM MgCl2, 0.1 mM DTT, 5×SYPRO Orange, 2 μM kinase, 2% DMSO and 20 μM inhibitor in the wells of a 96-well, low profile, white, PCR plate (USA scientific). The solution was pipetted up and down to mix, sealed with TempAssure clear PCR flat caps (USA Scientific), centrifuged at 500×g for 30 s, and heated in a Stratagene Mx3005P RT-PCR machine from 25° C. to 95° C. in 0.5° C. increments every 30 s after an initial incubation at 25° C. for 10 min. Fluorescence was measured at the end of each 30 s period with an excitation wavelength of 492 nm and an emission wavelength of 610 nm. To obtain the melting temperature, fluorescent signals were normalized to the maximum fluorescent signal for that well. Values after the well had reached a maximum signal were discarded and the signals were fit to the Boltzmann equation in Graphpad Prism 6. ΔTm was calculated as the difference in melting temperature between the compound-treated kinase compared to the DMSO control.

For a further assay, the target named is Src kinase (UniProt P00523). The experiment in a line: In vitro Src kinase assay (30-min). The settings on record: percent activity vs. DMSO control. The class given is biochemical. How it is done: In vitro Kinase Assays. In vitro kinase assays with the HER2 kinase domain (SignalChem) were performed in triplicate as follows. To 9 μL of a 2.5× solution of kinase and substrate in reaction buffer was added 3 μL of a 5×DMSO or inhibitor dilution in 10% DMSO:water. The inhibitor/kinase solution was incubated at room temperature for 10 minutes. The kinase assay was initiated by the addition of 3 μL of a 5× solution of ATP, and ran for 15 minutes. The final reaction conditions were 50 mM Tris (pH7.4), 5 mM MnCl2, 0.01% Tween-20, 2 mM DTT, 100 μM E4Y substrate (SignalChem), 15 nM HER2, 2% DMSO, 50 μM ATP, and 1 μCi γ^32P-ATP. After 15 minutes, 3 μL of each reaction was pipetted onto phosphocellulose sheets (P81, Whatman) and allowed to dry. The sheets were then washed 4×5 min with a solution of 0.5% phosphoric acid, dried, and exposed to a phosphor screen overnight. Src Kinase assays were conducted as previously described^2. Phosphorimaging was conducted on a Typhoon 9500, image intensities were quantified in ImageQuant 5.2, normalized to the DMSO control and plotted in GraphPad Prism 6.

For orientation: IC50 means the concentration needed to halve the response being measured. A high value points to a need for much substance. For `COc1cc2ncc(C#N)c(Nc3ccc(Oc4cccc(NC(=O)Nc5cccc(C(F)(F)F)c5)c4)cc3)c2cc1OC` [50A, 1-(3-(4-((3-cyano-6,7-dimethoxyquinolin-4-yl)amino)phenoxy)phenyl)-3-(3-(trifluoromethyl)phenyl)urea], the “binding to HER3 TKD (percent unfolded protein vs. temperature)” value on HER3 TKD was “particularly tight binding”. Further, at Src kinase, the IC50 is 3.3 nM.
As for `COc1cc(Nc2c(C#N)cnc3cc(OCCCN4CCN(C)CC4)c(OC)cc23)c(Cl)cc1Cl` [bosutinib, reference compound], the IC50 against Src kinase is 3.3 nM.

The record behind these values is US11124483B2, “HER3 ligands and uses thereof” (THE REGENTS OF THE UNIVERSITY OF CALIFORNIA, priority 2015, dated 2021).
